How the values were obtained:
[1] = test system: licking of the formalin injected paw (Phase 2, 20-30 min); assay: Formalin paw test, co-administration in constant dose ratio with isobolographic analysis (experiment 2); conditions: for Theoretical ID50 (μg/kg) for 2nd phase of licking (95% confidence limits): component dose at theoretical additive point; for Theoretical ID50 (μg/kg) for 2nd phase of licking (95% confidence limits) / Experimental ID50 (μg/kg) for 2nd phase of licking (95% confidence limits): i.v.; for Experimental ID50 (μg/kg) for 2nd phase of licking (95% confidence limits): component dose, constant dose ratio; for Effect on amount of morphine or Org 41793 required to elicit antinociception: second phase of licking
Method: In mice, recording the time spent licking or biting the injected paw is the most common method of behavioural assessment.
Experiments were performed on male mice (Hsd Ola:ICR) from Harlan UK Ltd. (Bicester, UK). Subjects were grouped on receipt and acclimatised for a minimum of 5 days at a constant temperature (21°±1° C.) under a 12-hour light/12-hour dark cycle. Mice were tail-marked. At the end of the study all mice were euthanized with CO2 or cervical dislocation.
Following subcutaneous formalin injection into the plantar surface of the paw, animals were placed in a Perspex box on a glass plate. A piece of black cardboard was placed on top of the box. A video camera (Sony) placed beneath the glass plate was then used to record the mice for 45 min after formalin injection. Six mice were observed simultaneously. The video camera was linked to a PC and the video images captured as MPEG files using a software package (Studio MP10). The MPEG file was later transferred to CD for offline analysis. A behavioural scoring program (The Observer) was then used to measure the time the mice spent licking the injected paw. Two blocks of time were analysed: 0-5 min (Phase 1) and 20-30 min (Phase 2). These two time periods were chosen to reflect the two phases of licking that typically occur after formalin injection.
All test agents were administered via a tail vein. […] Animals were weighed immediately prior to testing and all test agents were administered in a dosing volume of 5 ml/kg. Each animal was used once only.
The ID50 values calculated in experiment 1 for the second phase licking as previously described were used for this experiment. […] The ID50 of the total dose of the mixture was then calculated from this dose-response curve.
Testing for a significant difference by t-test was not possible since confidence intervals (CIs) were not symmetric around the theoretical additive ID50.

[2] = test system: licking of the formalin injected paw (Phase 2, 20-30 min); assay: Formalin paw test, determination of ID50 of single agents (experiment 1); type: in vivo, male mice (Hsd Ola:ICR); conditions: single agent; for Effect on Phase 2 licking: i.v., increasing doses; for ID50 (μg/kg) for 2nd phase of licking (95% confidence limits): intravenously 15 min before formalin (20 μl; 3%), 20-30 min after formalin
Method: Six mice were observed simultaneously.
All test agents were administered via a tail vein. […] Each animal was used once only.
Animals (n=6 for each dose/drug) received increasing doses of morphine, ketorolac, indomethacin, the hydrochloride salt of Org 41793 (Org 43273) or vehicle administered intravenously 15 min before injection of formalin (20 μl; 3%) into the plantar surface of the left hindpaw. Data were plotted as the mean time spent licking the formalin injected paw±s.e.m for each of the two time periods (0-5 & 20-30 min) and an ID50 for the group calculated. To calculate the ID50 for the second phase of licking, the time spent licking following test drug treatment was calculated as a percentage of the time spent licking by vehicle-treated mice. An ID50 was then calculated using a non-linear regression fit, sigmoidal dose-response with constants of 0 and 100 for the bottom and top, respectively (GraphPad Prism software).

[3] = combination Org 41793 with indomethacin
[4] = combination Org 41793 with indomethacin, listed as indomethacin
[5] = combination Org 41793 with ketorolac
[6] = combination Org 41793 with ketorolac, listed as ketorolac

SMILES: COc1ccc2c(c1)c(CC(=O)O)c(C)n2C(=O)c1ccc(Cl)cc1 [Indomethacin, indomethacin]
- Theoretical ID50 (μg/kg) for 2nd phase of licking (95% confidence limits) [1, 3]: Indomethacin: 170 (109- μg/kg
- Theoretical ID50 (μg/kg) for 2nd phase of licking (95% confidence limits) [1, 4]: 170 µg/kg
- Experimental ID50 (μg/kg) for 2nd phase of licking (95% confidence limits) [1, 3]: Indomethacin: 40 (26-58) μg/kg
- Experimental ID50 (μg/kg) for 2nd phase of licking (95% confidence limits) [1, 4]: 40 µg/kg
- Effect on amount of morphine or Org 41793 required to elicit antinociception [1]: opioid sparing
- Effect on Phase 2 licking [2]: dose-dependent inhibition
- ID50 (μg/kg) for 2nd phase of licking (95% confidence limits) [2]: 340 (218-531) μg/kg
- ID50 (μg/kg) for 2nd phase of licking (95% confidence limits) ([2]; listed as indomethacin): 340 µg/kg

SMILES: O=C(c1ccccc1)c1ccc2n1CCC2C(=O)O (racemic) [Ketorolac, (±)-5-benzoyl-2,3-dihydro-1H-pyrrolizine-1-carboxylic acid, 2-amino-2-(hydroxymethyl)-1,3-propanediol]
- Theoretical ID50 (μg/kg) for 2nd phase of licking (95% confidence limits) [1, 5]: Ketorolac: 35 (20-67) μg/kg
- Theoretical ID50 (μg/kg) for 2nd phase of licking (95% confidence limits) [1, 6]: 35 µg/kg
- Experimental ID50 (μg/kg) for 2nd phase of licking (95% confidence limits) [1, 5]: Ketorolac: 5 (2-12) μg/kg
- Experimental ID50 (μg/kg) for 2nd phase of licking (95% confidence limits) [1, 6]: 5 µg/kg
- Effect on amount of morphine or Org 41793 required to elicit antinociception [1]: opioid sparing
- Effect on Phase 2 licking [2]: dose-dependent inhibition
- ID50 (μg/kg) for 2nd phase of licking (95% confidence limits) [2]: 70 (40-134) μg/kg
- ID50 (μg/kg) for 2nd phase of licking (95% confidence limits) ([2]; listed as ketorolac): 70 µg/kg

SMILES: CN1CC[C@]23c4c5ccc(O)c4O[C@H]2[C@@H](O)C=C[C@H]3[C@H]1C5.O.O.O.O.O.O=S(=O)(O)O [Morphine, Morphine sulphate pentahydrate]
- Effect on Phase 2 licking [2]: dose-dependent inhibition
- ID50 (μg/kg) for 2nd phase of licking (95% confidence limits) [2]: 870 (496-1522) μg/kg
- ID50 (μg/kg) for 2nd phase of licking (95% confidence limits) ([2]; listed as morphine): 870 µg/kg

SMILES: C=CCN1C[C@H](C)N([C@@H](c2cccc(O)c2)c2cccc(C(=O)N(C)c3cccc(F)c3)c2)C[C@H]1C [Org 41793, 3-[(αR)-α-((2S,5R)-4-allyl-2,5-dimethyl-1-piperazinyl)-3-hydroxybenzyl]-N-(3-fluorophenyl)-N-methylbenzamide]
- Effect on Phase 2 licking [2]: dose-dependent inhibition
- ID50 (μg/kg) for 2nd phase of licking (95% confidence limits) [2]: 92 (60-140) μg/kg
